# In patent US9579322B2, “Methods for treating neurologic disorders” (EIP Pharma, LLC, priority 2014, dated 2017):
# What was measured:
# [1] = test system: amyloid plaque load; test: 2-week pilot study in aged Tg2576 mice; type: in vivo; settings: 26 month old Tg2576 mice, 2 weeks, versus control animals
# [2] = Plasma concentration by LC-MS/MS 1 hour post dosing; type: in vivo, Fischer rats
# Protocol: (§1) The primary objective of this study was to investigate whether pre-treatment with compound VX-745 alleviates cognitive defects in aged rats. Plasma concentration of VX-745 was determined with LC-MS/MS at the end of the study from samples collected 1 hour post dosing. In addition, protein levels of PSD95 in ventral cortex and hippocampus, and levels of IL-1β in the hippocampus were analyzed by specific ELISA assays to evaluate the potential anti-inflammatory effects of VX-745 in the brain
# (§2) One hour after the last vehicle or VX-745 morning dosing, the animals (10 per dosing group) were deeply anesthetized with pentobarbital and blood samples were collected by cardiac puncture. 500 μl of blood was collected into EDTA microtubes, centrifuged, and plasma collected. The brains were perfused with heparinized saline, and the brains were collected. Right hemisphere was post-fixed by immersion in 4% PFA in 0.1 M PB for 24 h. After a brief wash with phosphate buffer, the hemisphere was cryoprotected in 30% sucrose in PB for 2-3 days, after which it was frozen on liquid nitrogen and stored at −80° C. for optional future immunohistochemical analysis. Left hemisphere was dissected to ventral and dorsal cortex, hippocampus and remaining brain fraction and fresh frozen on dry ice.
# Plasma samples were processed using acetonitrile precipitation and then analyzed for VX745 drug concentration by LC-MS/MS
# [3] = test system: rheumatoid arthritis (RA); settings: cited from earlier work
# [4] = test system: IL-1β signaling and IL-1β production; test: Inhibition of IL-1beta signaling versus IL-1beta production; type: cell-based, human; settings: for potency for inhibition of cytokine (IL-1beta) signaling relative to inhibition of cytokine production: signaling versus production
# [5] = test system: hyperalgesic response; settings: cited from earlier work
# [6] = animals; cited from earlier work
# [7] = test system: paw swelling; settings: 10 mg/kg, reference compound in arthritis model; cited from earlier work
# [8] = test system: IL-1β; test: IL-1β ELISA of hippocampus extracts; type: in vivo, Fischer rats
# Protocol: as §1
# as §2, with “Left hemisphere was dissected to ventral and dorsal cortex, hippocampus and remaining brain fraction and fresh frozen on dry ice.” left out
# (§3) Cortex and hippocampal soluble extracts were analyzed for PSD95 content using an ELISA kit (Cusabio Biotech Ltd., #CSB-EL006938RA, Lot 031154387), while the levels of Il-1β were analyzed only from hippocampus (R&D Systems, #RLB00, Lot 308544).
# [9] = test system: PSD95; test: PSD95 ELISA of cortex and hippocampus extracts; type: in vivo, Fischer rats
# Protocol: as §1
# as §2, with “Left hemisphere was dissected to ventral and dorsal cortex, hippocampus and remaining brain fraction and fresh frozen on dry ice.” left out
# as §3
# [10] = cited from earlier work
# [11] = 250 mg b.i.d, phase 2 clinical, RA patients
substance,measurement,setting,value
VX-745,amyloid plaque load,[1],lower amyloid plaque load than control animals
same,plasma drug concentration relative to concentrations needed for IL-1β inhibition,[2]; 1.5 mg/kg,reached drug concentrations required for blocking IL-1β signaling
same,plasma drug concentration relative to concentrations needed for IL-1β inhibition,[2]; 4.5 mg/kg,reached concentrations exceeding whole blood IC50 for IL-1β production
same,plasma drug levels one hour after last dose,"[2]; 0.5, 1.5 and 4.5 mg/kg p.o. BID, aged rats",increased in a dose proportional manner
same,adverse events in patients,[3]; [11],"adverse events, including gastrointestinal effects such as diarrhea and abdominal pain, and elevations in liver transaminases"
same,inflammatory markers and clinical improvement,[3]; [11],significant reduction in inflammatory markers and clinical improvement
same,mean plasma drug concentrations,"[3]; 250 mg b.i.d, phase 2 clinical",approximately 75 ng/m
same,adverse neurological effects in humans,[3]; humans,not observed
same,mean blood concentration in the treatment of rheumatoid arthritis,[3]; treatment of rheumatoid arthritis,approximately 75 ng/mL
same,IC50 for inhibition of IL-1β signaling relative to IC50 for inhibition of IL-1β production,"[4]; human systems, prior, previously undisclosed studies",approximately half
same,potency for inhibition of cytokine (IL-1beta) signaling relative to inhibition of cytokine production,[4],approximately twice
same,potency for inhibition of cytokine (IL-1beta) signaling relative to inhibition of cytokine production,[4]; listed as VX745,two-fold higher
same,effect on hyperalgesia at the 3 mg/kg dose,[5]; 3 mg/kg,minimal effect
same,inhibition of hyperalgesic response,"[5]; rats, 30 mg/kg, 10 mg/kg and 3 mg/kg",significant inhibition of hyperalgesic response
same,neurological effects at very high doses,[6],adverse neurological effects
same,inhibition of paw swelling,[7],not as effective at inhibiting paw swelling as other compounds assayed
same,IL-1β levels in the hippocampus,[8]; 1.5 mg/kg,no evident effects
same,IL-1β levels in the hippocampus,"[8]; 4.5 mg/kg, p=0.038 Mann-Whitney, similar to young rats",lower relative to the aged vehicle-treated group
same,PSD95 protein levels,[9]; 1.5 mg/kg,no evident effects
same,PSD95 protein levels,"[9]; 4.5 mg/kg versus aged vehicle-treated group, p=0.063 Mann-Whitney",statistical trend towards higher levels of PSD95
same,blood brain barrier penetration,[10]; animals,known to penetrate the blood brain barrier (BBB)
same,brain concentrations relative to plasma,[10]; brain versus plasma,1.7 times
